The target of one test is T1, ligand binding domain of human ROR gamma (Homo sapiens, UniProt P51449).
T1 construct: NM_001001523; expressed in transfected cells; host or cells: HEK293T
T1 sequence (P51449 247-497 isoform P51449-2): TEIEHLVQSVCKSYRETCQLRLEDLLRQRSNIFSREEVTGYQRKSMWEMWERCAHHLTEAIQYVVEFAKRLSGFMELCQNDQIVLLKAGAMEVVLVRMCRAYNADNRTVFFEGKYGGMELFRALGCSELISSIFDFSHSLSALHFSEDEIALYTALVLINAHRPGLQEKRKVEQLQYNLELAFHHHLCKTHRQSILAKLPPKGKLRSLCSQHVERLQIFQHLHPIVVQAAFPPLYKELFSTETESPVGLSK
As to the kind of experiment: ROR gamma reporter gene assay (GAL4-RORγ LBD luciferase, Dual-Glo). The settings on record: HEK293T cells transfected with pM-ROR gamma, 8 concentrations 3.5 nM to 10.5 μM, 24 h incubation. Format: cell-based. As for the experimental part:
Luciferase reporter gene assay was used to assess inhibition of RORγ transcriptional activity.
ROR gamma expression vector was prepared by inserting the ligand binding domain of human ROR gamma (amino acid 247-497 of Genbank Accession NO. NM_001001523) adjacent to the yeast GAL4 transcription factor DNA binding domain in the expression vector pM (Clontech). The resulting expression vector pM-ROR gamma was used in transfection experiments together with the pGL4 luciferase reporter plasmid (Promega) containing five copies of the UAS GAL4 recognition site and pRL-CMV plasmids (Promega) containing the constitutive CMV promoter and the renilla luciferase.
For preparing transfection reagent/DNA mixture, 1 μg pM-ROR gamma, 1 μg pGL4 5×UAS, 625 pg pRL-CMV and 6.25 μL FuGENE™ HD transfection reagent (Promega) were mixed in 0.25 mL OPTI-MEM™ (Life technologies) at room temperature. At the same time, Negative control DNA mixture was prepared by using 1 μg pM empty vector instead of pM-ROR gamma plasmid. After a fifteen minute incubation, 0.25 mL of transfection reagent/DNA mixture was added to 1,000,000 of HEK293T cells (ATCC) in 5 mL of OPTI-MEM™ containing 10% Charcoal Stripped Fetal Bovine Serum.
Transfected cells were seeded onto 384 well plate (10 μL/well) and the 7.5 nL of test compounds were added to the wells in 8 concentrations ranging from 3.5 nM to 10.5 μM. The compounds were dissolved in 100% DMSO and the final concentration of DMSO in the assay was 0.075%.
After 24 h of incubation at 37° C., 5% CO2 in a cell culture incubator, the Dual-Glo™ Luciferase Assay System was used to detect activity according to the manufacturer's instructions (Promega, Cat. No.: E2920).
Data was plotted and pIC50 values were calculated using the XLfit program (ID Business Solutions Ltd.).
As to `CC1(C)CC[C@@H](CN(CC(=O)c2c(Cl)cncc2Cl)C(=O)c2cnn([C@H]3CC[C@H](C(=O)O)CC3)c2C(F)(F)F)O1` (relative stereo) [Example 14, trans-4-(4-((2-(3,5-dichloropyridin-4-yl)-2-oxoethyl)(((S)-5,5-dimethylTHF-2-yl)methyl)carbamoyl)-5-(trifluoromethyl)-1H-pyrazol-1-yl)cyclohexanecarboxylic acid], the “result (pIC50, inhibition of RORγ transcriptional activity)” value came to 7.12.

Still in this test, the particulars now being: HEK293T cells transfected with pM-ROR gamma, 8 concentrations 3.5 nM to 10.5 μM, 24 h incubation; read-out: result (pIC50, inhibition of RORγ transcriptional activity) (converted).
`CC1(C)CCC(N(CC(O)c2c(Cl)cc(F)cc2Cl)C(=O)c2cnn([C@H]3CC[C@](C)(C(=O)O)CC3)c2C(F)(F)F)CC1` (single isomer, unassigned) [Example 361, trans-4-(4-(((2R)-2-(2,6-dichloro-4-fluorophenyl)-2-hydroxyethyl)-(4,4-dimethylcyclohexyl)carbamoyl)-5-(trifluoromethyl)pyrazol-1-yl)-1-methylcyclohexane-1-carboxylic acid or trans-4-(4-(((2S)-2-(2,6-dichloro-4-fluorophenyl)-2-hydroxyethyl)-(4,4-dimethylcyclohexyl)carbamoyl)-5-(trifluoromethyl)pyrazol-1-yl)-1-methylcyclohexane-1-carboxylic acid]: the IC50 was 1.2e+06 pM.
With `CC1(C)CCC(N(CC(O)c2c(Cl)cc(F)cc2Cl)C(=O)c2cnn([C@H]3CC[C@](C)(C(=O)O)CC3)c2C(F)(F)F)CC1` (single isomer, unassigned) [Example 362, trans-4-(4-(((2R)-2-(2,6-dichloro-4-fluorophenyl)-2-hydroxyethyl)-(4,4-dimethylcyclohexyl)carbamoyl)-5-(trifluoromethyl)pyrazol-1-yl)-1-methylcyclohexane-1-carboxylic acid or trans-4-(4-(((2S)-2-(2,6-dichloro-4-fluorophenyl)-2-hydroxyethyl)-(4,4-dimethylcyclohexyl)carbamoyl)-5-(trifluoromethyl)pyrazol-1-yl)-1-methylcyclohexane-1-carboxylic acid], the IC50 is 57500 pM.
Turning to `O=C(CN(Cc1ccc(F)cc1)C(=O)c1cnn([C@H]2CCC(C(=O)O)C2)c1C(F)(F)F)c1c(Cl)cncc1Cl` (stereo in doubt) [Example 93, (1S,3S)-3-(4-((2-(3,5-dichloropyridin-4-yl)-2-oxoethyl)-((4-fluorophenyl)methyl)carbamoyl)-5-(trifluoromethyl)pyrazol-1-yl)cyclopentane-1-carboxylic acid], the IC50 is 575000 pM.
Take `CC(C)(C)CN(C[C@H](O)c1ncccc1Cl)C(=O)c1cnn([C@H]2CC[C@](C)(C(=O)O)CC2)c1C(F)(F)F` (stereo in doubt) [Example 402, trans-4-(4-((2-(3-chloropyridin-2-yl)-2-hydroxyethyl)-(2,2-dimethylpropyl)carbamoyl)-5-(trifluoromethyl)pyrazol-1-yl)-1-methylcyclohexane-1-carboxylic acid]: the IC50 was at least 1.05e+07 pM.
On the same count and under the same terms, as for `CC(C)(C)CN(C[C@@H](O)c1ncccc1Cl)C(=O)c1cnn([C@H]2CC[C@](C)(C(=O)O)CC2)c1C(F)(F)F` (stereo in doubt) [Example 403, trans-4-(4-((2-(3-chloropyridin-2-yl)-2-hydroxyethyl)-(2,2-dimethylpropyl)carbamoyl)-5-(trifluoromethyl)pyrazol-1-yl)-1-methylcyclohexane-1-carboxylic acid], the figure is 1.74e+06 pM; as for `O=C(CN(Cc1ccc(F)cc1)C(=O)c1cnn([C@H]2CC[C@H](C(=O)O)CC2)c1C(F)(F)F)c1c(Cl)cncc1Cl` [Example 1, trans-4-(4-((2-(3,5-dichloropyridin-4-yl)-2-oxoethyl)(4-fluorobenzyl)carbamoyl)-5-(trifluoromethyl)-1H-pyrazol-1-yl)cyclohexanecarboxylic acid], 24000 pM; as for `C[C@]1(C(=O)O)CC[C@H](n2ncc(C(=O)N(CC(=O)c3c(Cl)cc(F)cc3Cl)Cc3cc(F)cc(F)c3)c2C(F)(F)F)CC1` [Example 2, trans-4-(4-((2-(2,6-dichloro-4-fluorophenyl)-2-oxoethyl)(3,5-difluorobenzyl)carbamoyl)-5-(trifluoromethyl)-1H-pyrazol-1-yl)-1-methylcyclohexanecarboxylic acid], 7590 pM.
`Cc1csc(C)c1C(=O)CN(Cc1cc(F)cc(F)c1)C(=O)c1cnn([C@H]2CC[C@H](C(=O)O)CC2)c1C(F)(F)F` [Example 3, trans-4-(4-((3,5-difluorobenzyl)(2-(2,4-dimethylthiophen-3-yl)-2-oxoethyl)carbamoyl)-5-(trifluoromethyl)-1H-pyrazol-1-yl)cyclohexanecarboxylic acid]: the IC50 was above 1e+07 pM.
Regarding `CS(=O)(=O)c1cc(Cl)c(C(=O)CN(Cc2cc(F)cc(F)c2)C(=O)c2cnn([C@H]3CC[C@H](C(=O)O)CC3)c2C(F)(F)F)c(Cl)c1` [Example 4, trans-4-(4-((2-(2,6-dichloro-4-(methylsulfonyl)phenyl)-2-oxoethyl)(3,5-difluorobenzyl)carbamoyl)-5-(trifluoromethyl)-1H-pyrazol-1-yl)cyclohexanecarboxylic acid], the IC50 is 380000 pM.
Same read-out and setting: as for `O=C(CN(Cc1cc(F)cc(F)c1)C(=O)c1cnn([C@H]2CC[C@H](C(=O)NO)CC2)c1C(F)(F)F)c1c(Cl)cncc1Cl` [Example 5, N-(2-(3,5-dichloropyridin-4-yl)-2-oxoethyl)-N-(3,5-difluorobenzyl)-1-(trans-4-(hydroxycarbamoyl)cyclohexyl)-5-(trifluoromethyl)-1H-pyrazole-4-carboxamide], the figure is 209000 pM; as for `CONC(=O)[C@H]1CC[C@H](n2ncc(C(=O)N(CC(=O)c3c(Cl)cncc3Cl)Cc3cc(F)cc(F)c3)c2C(F)(F)F)CC1` [Example 6, N-(2-(3,5-dichloropyridin-4-yl)-2-oxoethyl)-N-(3,5-difluorobenzyl)-1-(trans-4-(methoxycarbamoyl)cyclohexyl)-5-(trifluoromethyl)-1H-pyrazole-4-carboxamide], 87100 pM; as for `COc1cccc(O)c1C(=O)CN(Cc1cc(F)cc(F)c1)C(=O)c1cnn([C@H]2CC[C@H](C(=O)O)CC2)c1C(F)(F)F` [Example 7, trans-4-(4-((3,5-difluorobenzyl)(2-(2-hydroxy-6-methoxyphenyl)-2-oxoethyl)carbamoyl)-5-(trifluoromethyl)-1H-pyrazol-1-yl)cyclohexanecarboxylic acid], 4.57e+06 pM.
Take `O=C(CN(Cc1cc(F)cc(F)c1)C(=O)c1cnn([C@H]2CC[C@H](C(=O)O)CC2)c1C(F)(F)F)c1cc[nH]n1` [Example 8, trans-4-(4-((3,5-difluorobenzyl)(2-oxo-2-(1H-pyrazol-3-yl)ethyl)carbamoyl)-5-(trifluoromethyl)-1H-pyrazol-1-yl)cyclohexanecarboxylic acid]: the IC50 was above 1e+07 pM.
With `O=C(CN(Cc1cc(F)cc(F)c1)C(=O)c1cnn(C2CCC(C(=O)O)CC2)c1C(F)(F)F)c1c(O)cccc1O` (stereo not drawn) [Example 9, 4-(4-((3,5-difluorobenzyl)(2-(2,6-dihydroxyphenyl)-2-oxoethyl)carbamoyl)-5-(trifluoromethyl)-1H-pyrazol-1-yl)cyclohexanecarboxylic acid], the IC50 was above 1e+07 pM.
Turning to `O=C(c1cnn([C@H]2CC[C@H](C(=O)O)CC2)c1C(F)(F)F)N(Cc1cc(F)cc(F)c1)CC(F)(F)c1c(Cl)cncc1Cl` [Example 10, trans-4-(4-((2-(3,5-dichloropyridin-4-yl)-2,2-difluoroethyl)(3,5-difluorobenzyl)carbamoyl)-5-(trifluoromethyl)-1H-pyrazol-1-yl)cyclohexanecarboxylic acid], the IC50 was 25700 pM.
With `Nc1cccc(Cl)c1C(=O)CN(Cc1cc(F)cc(F)c1)C(=O)c1cnn([C@H]2CC[C@H](C(=O)O)CC2)c1C(F)(F)F` [Example 11, trans-4-(4-((2-(2-amino-6-chlorophenyl)-2-oxoethyl)(3,5-difluorobenzyl)carbamoyl)-5-(trifluoromethyl)-1H-pyrazol-1-yl)cyclohexanecarboxylic acid], the IC50 was 38000 pM.

The same test, now with this note: result (pIC50, inhibition of RORγ transcriptional activity), HEK293T cells transfected with pM-ROR gamma, 8 concentrations 3.5 nM to 10.5 μM, 24 h incubation.
With `O=C(CN(Cc1cc(F)cc(F)c1)C(=O)c1cnn([C@H]2CC[C@H](C(=O)O)CC2)c1C(F)(F)F)c1c(O)nc(O)nc1O` [Example 12, trans-4-(4-((3,5-difluorobenzyl)(2-oxo-2-(2,4,6-trihydroxypyrimidin-5-yl)ethyl)carbamoyl)-5-(trifluoromethyl)-1H-pyrazol-1-yl)cyclohexanecarboxylic acid], the IC50 is 3.72e+06 pM.
